Results as given in PubChem BioAssay AID248 (DTP/NCI, 2004).
Several values for one entry are separate records, joined by “and”; a condition that tells them apart may be missing. Equal values may be shown once. Inconclusive results and toxic doses are left out. Rule as the data show it: active = T/C of 150% or more; inactive = T/C below 125%.

System: L1210 leukemia ip in BDF1 mice, survival T/C
Experiment: NCI In Vivo Anticancer Drug Screen. Data for tumor model L1210 Leukemia (intraperitoneal) in B6D2F1 (BDF1) mice
Conditions: endpoint: mean survival time, higher = longer survival
Method in brief: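 Read-out is survival time, reported as the treated-group measurement over the vehicle-control measurement.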

[1] = dose: 100.0 mg/kg/injection, schedule: Q01DX001 (ip), vehicle: Klucel (hydroxypropylcellulose) (HPC)
[2] = dose: 100.0 mg/kg/injection, schedule: Q01DX009 (ip), vehicle: Klucel (hydroxypropylcellulose) (HPC)
[3] = dose: 100.0 mg/kg/injection, schedule: Q04DX003 (ip), vehicle: Klucel (hydroxypropylcellulose) (HPC)
[4] = dose: 200.0 mg/kg/injection, schedule: Q01DX001 (ip), vehicle: Klucel (hydroxypropylcellulose) (HPC)
[5] = dose: 200.0 mg/kg/injection, schedule: Q01DX009 (ip), vehicle: Klucel (hydroxypropylcellulose) (HPC)
[6] = dose: 200.0 mg/kg/injection, schedule: Q04DX003 (ip), vehicle: Klucel (hydroxypropylcellulose) (HPC)
[7] = dose: 400.0 mg/kg/injection, schedule: Q01DX001 (ip), vehicle: Klucel (hydroxypropylcellulose) (HPC)
[8] = dose: 400.0 mg/kg/injection, schedule: Q01DX009 (ip), vehicle: Klucel (hydroxypropylcellulose) (HPC)
[9] = dose: 400.0 mg/kg/injection, schedule: Q04DX003 (ip), vehicle: Klucel (hydroxypropylcellulose) (HPC)
[10] = dose: 100.0 mg/kg/injection, schedule: Q01DX001 (ip), vehicle: saline
[11] = dose: 100.0 mg/kg/injection, schedule: Q01DX009 (ip), vehicle: saline
[12] = dose: 100.0 mg/kg/injection, schedule: Q04DX003 (ip), vehicle: saline
[13] = dose: 200.0 mg/kg/injection, schedule: Q01DX001 (ip), vehicle: saline
[14] = dose: 200.0 mg/kg/injection, schedule: Q01DX009 (ip), vehicle: saline
[15] = dose: 200.0 mg/kg/injection, schedule: Q04DX003 (ip), vehicle: saline
[16] = dose: 400.0 mg/kg/injection, schedule: Q01DX001 (ip), vehicle: saline
[17] = dose: 400.0 mg/kg/injection, schedule: Q01DX009 (ip), vehicle: saline
[18] = dose: 400.0 mg/kg/injection, schedule: Q04DX003 (ip), vehicle: saline
[19] = dose: 100.0 mg/kg/injection, schedule: Q04DX003 (ip), vehicle: saline with Tween-80
[20] = dose: 200.0 mg/kg/injection, schedule: Q04DX003 (ip), vehicle: saline with Tween-80
[21] = dose: 400.0 mg/kg/injection, schedule: Q04DX003 (ip), vehicle: saline with Tween-80
[22] = dose: 25.0 mg/kg/injection, schedule: Q04DX002 (ip), vehicle: saline
[23] = dose: 50.0 mg/kg/injection, schedule: Q04DX002 (ip), vehicle: saline
[24] = dose: 25.0 mg/kg/injection, schedule: Q01DX009 (ip), vehicle: saline with Tween-80
[25] = dose: 50.0 mg/kg/injection, schedule: Q01DX009 (ip), vehicle: saline with Tween-80
[26] = dose: 100.0 mg/kg/injection, schedule: Q01DX009 (ip), vehicle: saline with Tween-80
[27] = dose: 200.0 mg/kg/injection, schedule: Q01DX009 (ip), vehicle: saline with Tween-80
[28] = dose: 400.0 mg/kg/injection, schedule: Q01DX009 (ip), vehicle: saline with Tween-80
[29] = dose: 100.0 mg/kg/injection, schedule: Q04DX002 (ip), vehicle: Klucel (hydroxypropylcellulose) (HPC)
[30] = dose: 200.0 mg/kg/injection, schedule: Q04DX002 (ip), vehicle: Klucel (hydroxypropylcellulose) (HPC)

Measured: T/C

COCCNCC1OC(OC)C2OC(C)(C)OC12 (stereo unspecified)
inactive: dose: 100.0 mg/kg/injection, schedule: Q01DX005 (ip), vehicle: saline 104 % of control | dose: 200.0 mg/kg/injection, schedule: Q01DX005 (ip), vehicle: saline 102 % of control

COc1ncnc2nc[nH]c12
inactive: dose: 50.0 mg/kg/injection, schedule: Q01DX001 (ip), vehicle: Klucel (hydroxypropylcellulose) (HPC) 97 % of control | [1] 103 % of control | [2] 101 % of control | [3] 97 % of control | [4] 98 % of control | [5] 102 % of control | [6] 105 % of control | [7] 101 % of control | [8] 98 % of control | [9] 106 % of control

CN(CCN1CCCCC1)C(=O)C(c1ccccc1)C1CCCCC1 (stereo unspecified)
inactive: dose: 75.0 mg/kg/injection, schedule: Q01DX001 (ip), vehicle: saline 98 % of control

COC(O)C(Cl)(Cl)Cl (stereo unspecified)
inactive: [10] 101 % of control | [11] 97 % of control | [12] 96 % of control | [13] 97 % of control | [14] 103 % of control | [15] 100 % of control | [16] 109 % of control | [17] 103 % of control | [18] 104 % of control

O=C(O)/C(=C\c1ccccc1)c1ccc([N+](=O)[O-])cc1
inactive: [19] 103 % of control | [20] 92 % of control | [21] 92 % of control

CCCNCCC[P+](c1ccccc1)(c1ccccc1)c1ccccc1
inactive: [22] 102 % of control | [23] 98 % of control | dose: 100.0 mg/kg/injection, schedule: Q04DX002 (ip), vehicle: saline 98 % of control and 91 % of control

COc1cc(C=O)ccc1OC(=O)Nc1cc([N+](=O)[O-])ccc1F
inactive: [2] 97 % of control | [5] 93 % of control | [8] 92 % of control

CCN(CC)CCN1C(=O)CN=C(c2ccccn2)c2cc(Cl)ccc21
inactive: dose: 50.0 mg/kg/injection, schedule: Q01DX009 (ip), vehicle: saline 101 % of control | [11] 104 % of control | [19] 97 % of control | [14] 112 % of control | [20] 92 % of control

c1ccc(-c2ccccc2NC2=NCCO2)cc1
inactive: dose: 12.5 mg/kg/injection, schedule: Q01DX009 (ip), vehicle: saline with Tween-80 100 % of control | [24] 94 % of control | [25] 94 % of control

CCC(CO)Nc1nc2c(Cl)cc(Cl)cc2c2ccccc12 (stereo unspecified)
inactive: [3] 100 % of control | [6] 100 % of control | [9] 90 % of control

C1=NN=C2C=C3CCc4ccccc4C3CC12 (stereo unspecified)
inactive: dose: 100.0 mg/kg/injection, schedule: Q01DX001 (ip), vehicle: acetone 93 % of control | dose: 200.0 mg/kg/injection, schedule: Q01DX001 (ip), vehicle: acetone 96 % of control

Cc1ccc(NC(=O)c2ccc([N+](=O)[O-])cc2)c(C)c1
inactive: [1] 91 % of control | [26] 96 % of control | [19] 94 % of control | [4] 94 % of control | [27] 102 % of control | [20] 96 % of control | [7] 112 % of control | [28] 96 % of control | [21] 99 % of control

O=C(OC1CCC/C=C\CCCC1)c1ccc([N+](=O)[O-])cc1 (stereo unspecified)
inactive: [10] 93 % of control | [13] 98 % of control | [16] 96 % of control

Cc1coc(NS(=O)(=O)c2ccc(N=Nc3c(N)[nH]c(=S)[nH]c3=O)cc2)c1C
inactive: [10] 113 % of control | [13] 107 % of control | [16] 101 % of control

CCCNC(=O)Nc1ccc(C)cc1C
inactive: [26] 96 % of control | [19] 97 % of control | [27] 97 % of control | [20] 97 % of control | [28] 100 % of control | [21] 101 % of control

OCC(Cl)(Cl)Cl
inactive: [12] 104 % of control | [15] 96 % of control | [18] 107 % of control

CN(N)c1cc(=O)[nH]c(N)n1
inactive: [29] 101 % of control | [30] 97 % of control | dose: 400.0 mg/kg/injection, schedule: Q04DX002 (ip), vehicle: Klucel (hydroxypropylcellulose) (HPC) 92 % of control

CC(C)(C)OC(=O)NC(CCCCNC(=O)C(F)(F)F)C(=O)ON1C(=O)CCC1=O (stereo unspecified)
inactive: [24] 93 % of control | [25] 95 % of control | [26] 90 % of control

COc1c(C)cc(Br)c2c1C(CCN(C)S(=O)(=O)Cc1ccccc1)CCC2 (stereo unspecified)
inactive: [2] 95 % of control | [3] 96 % of control | [5] 89 % of control | [6] 98 % of control | [8] 93 % of control | [9] 91 % of control

CC(=O)OC1CC2(CO2)C2CC=C(C)C2C2OC(=O)C(C)C12 (stereo unspecified)
inactive: dose: 12.5 mg/kg/injection, schedule: Q04DX002 (ip), vehicle: saline 110 % of control | [22] 100 % of control | [23] 95 % of control | [29] 90 % of control | [30] 100 % of control

COc1ccc(NC(=O)COc2ccc(Cl)cc2)cc1
inactive: [2] 93 % of control | [3] 100 % of control | [5] 90 % of control | [6] 106 % of control | [8] 92 % of control | [9] 93 % of control

N#CC1(N2CCC3(CC2)OCCO3)CCCCC1
inactive: dose: 12.5 mg/kg/injection, schedule: Q01DX009 (ip), vehicle: Klucel (hydroxypropylcellulose) (HPC) 101 % of control | dose: 12.5 mg/kg/injection, schedule: Q04DX003 (ip), vehicle: Klucel (hydroxypropylcellulose) (HPC) 91 % of control | dose: 25.0 mg/kg/injection, schedule: Q01DX009 (ip), vehicle: Klucel (hydroxypropylcellulose) (HPC) 95 % of control | dose: 25.0 mg/kg/injection, schedule: Q04DX002 (ip), vehicle: Klucel (hydroxypropylcellulose) (HPC) 107 % of control | dose: 25.0 mg/kg/injection, schedule: Q04DX003 (ip), vehicle: Klucel (hydroxypropylcellulose) (HPC) 100 % of control | dose: 50.0 mg/kg/injection, schedule: Q04DX002 (ip), vehicle: Klucel (hydroxypropylcellulose) (HPC) 96 % of control | [29] 95 % of control

Cc1ccc(C(C)C)c(OCC(O)CN2CC=CCC2)c1 (stereo unspecified)
inactive: dose: 25.0 mg/kg/injection, schedule: Q04DX003 (ip), vehicle: saline 100 % of control | dose: 50.0 mg/kg/injection, schedule: Q04DX003 (ip), vehicle: saline 112 % of control | [12] 99 % of control and 109 % of control

CC(O)COCc1ccccc1 (stereo unspecified)
inactive: [11] 103 % of control | [12] 94 % of control | [14] 94 % of control | [15] 94 % of control | [17] 97 % of control | [18] 90 % of control

O=C(Nc1cccc(C(F)(F)F)c1)Nc1cc([N+](=O)[O-])ccc1Cl
inactive: dose: 50.0 mg/kg/injection, schedule: Q01DX009 (ip), vehicle: Klucel (hydroxypropylcellulose) (HPC) 96 % of control | [2] 97 % of control and 108 % of control | [5] 89 % of control | [8] 88 % of control

Cc1ccc(S(=O)(=O)N(C)c2ccc(CC(=O)O)cc2)cc1
inactive: [3] 97 % of control | [6] 95 % of control | [9] 95 % of control

CNS(=O)(=O)c1ccc(NC(=O)CI)cc1
inactive: dose: 3.0 mg/kg/injection, schedule: Q01DX009 (ip), vehicle: Klucel (hydroxypropylcellulose) (HPC) 112 % of control | dose: 6.0 mg/kg/injection, schedule: Q01DX009 (ip), vehicle: Klucel (hydroxypropylcellulose) (HPC) 96 % of control | dose: 12.0 mg/kg/injection, schedule: Q01DX009 (ip), vehicle: Klucel (hydroxypropylcellulose) (HPC) 108 % of control | dose: 12.5 mg/kg/injection, schedule: Q01DX001 (ip), vehicle: other 96 % of control | dose: 12.5 mg/kg/injection, schedule: Q04DX003 (ip), vehicle: other 93 % of control | dose: 25.0 mg/kg/injection, schedule: Q01DX001 (ip), vehicle: other 96 % of control | dose: 50.0 mg/kg/injection, schedule: Q01DX001 (ip), vehicle: other 88 % of control
